According to publication PMC10762068, “Selective blockade of Cav1.2 (α1C) versus Cav1.3 (α1D) L-type calcium channels by the black mamba toxin calciseptine” (Nature Communications, 2024):
Positions of bridges follow the written chain, without caps; N, C: chain ends. No end group written: not given here.

Experiments:
Cav1.3_42a = test: Whole cell recording of ICav1.3-42a in HEK-293T cells; type: cell-based; conditions: for L-type Ca2+ current density: mean ± SEM, n=9
Procedure: HEK-293T (RRID:CVCL_2737) were obtained from the European Collection of Authenticated Cell Cultures (ECACC 96121229). The identity of HEK-293T has been confirmed by STR profiling and the cells have been eradicated from mycoplasma at ECACC. We routinely tested the cells for the absence of the mycoplasma contamination. Cells were cultivated at 37 °C in DMEM supplemented with GlutaMax, 10% fetal bovine serum and 1% penicillin/streptomycin (Invitrogen, Fisher Scientific, France). Transfections were performed using jet-PEI (Ozyme, France) with a DNA mix containing either the plasmids that code for Cav1.2-GFP, β2a and α2δ (0.8 µg of each) or either the plasmids that code for Cav1.3 (with and without exon 42a), or Cav2.1, or either Cav2.2 combined with β2a and α2δ (0.8 µg of each supplemented with 0.025 µg of a plasmid coding for GFP). For Cav3.1 expression β2a and α2δ subunits were omitted. Plasmids coding for β2a, α2δ and Cav1.3 were created as described previously. Plasmid coding for Cav1.2-GFP was obtained from Dr. Catalucci[60]. After transfection cells were placed at 30 °C for 2–3 days and dissociated with Versene (Invitrogen, Fisher Scientific, France) and plated at a density of ~35 × 10^3 cells per 35 mm Petri dish for electrophysiological recordings, which were performed the following day.
Macroscopic currents in HEK-293T cells were recorded at room temperature using an Axopatch 200B or Multiclamp 700B patchclamp amplifier (Molecular Devices, Sunnyvale CA). […] The extracellular solution contained (in mM): 135 NaCl, 20 TEACl, 5 BaCl2, 1 MgCl2, and 10 HEPES (pH adjusted to 7.25 with KOH, ~330 mOsm).
(§1) In all experiments of cellular electrophysiology, we employed synthetized analog of Cas, commercially available at Latoxan (ID: L8109). The native peptide was purified from the venom of Dendroaspis polylepis purchased from Latoxan, as previoulsly described. The pure peptide was obtained after gel filtration, cation exchange and C18 reversed phase chromatography. Its measured molecular mass (7036.26 Da average) was in accordance with the mass calculated from sequence data (7036.22 Da).

[1] = test system: DHP-sensitive Ca2+ channel in smooth muscle cells of the guinea-pig portal vein; conditions: cell-attached, 90 mM Ba2+ in the pipette; ref Teramoto et al, Pflugers Arch 1996; cited from earlier work
Description: This po int deserves further specific investigations and addit ional structural studies are required to elucidate the interaction and binding properties between Cas and Cav1.2 channel.

[2] = test system: SAN myocytes from Wild-Type mice; test: Spontaneous action potentials, perforated patch-clamp, SAN pacemaker myocytes; type: cell-based, mouse; conditions: for action potential duration APD30: 30% repolarization; for action potential duration APD30 / action potential duration APD50 / action potential duration APD70 / action potential duration APD90 / slope of linear part of diastolic depolarization (SLDD) / slope of exponential part of diastolic depolarization (SEDD) / action potential amplitude (APA) / action potential rate: mean ± SEM; for action potential duration APD50: 50% repolarization; for action potential duration APD70: 70% repolarization; for action potential duration APD90: 90% repolarization
Procedure: Hearts from Wild-Type and Cav1.3^−/− mice were removed under general anesthesia consisting of 0.01 mg/g xylazine (2% Rompun; Bayer AG) and 0.1 mg/g ketamine (Imalgène;Merial) and immersed in a pre-warmed (36 °C) Tyrode solution containing (mM): 140 NaCl, 5.4 KCl, 1 MgCl2, 1.8 CaCl2, 5.5 D-glucose, and 5 Hepes (adjusted to pH 7.4 with NaOH). […] SAN tissue was excised and transferred into a low-Ca^2+ solution containing (mM): 140 NaCl, 5.4 KCl, 0.5 MgCl2, 0.2 CaCl2, 1.2 KH2PO4, 50 taurine, 5.5 D-glucose, 1 mg/mL BSA, and 5 Hepes–NaOH (adjusted to pH 6.9 with NaOH) for 5 min. Then, enzymatic digestion was carried out for 20-25 min at 36 °C in the low-Ca^2+ solution containing LiberaseTH Research Grade (0.15 mg/mL; Roche, Mannheim, Germany) and elastase (0.5 mg/mL; Worthington, Lakewood, NJ, USA). Digestion was stopped by washing the SAN in a “Kraftbrühe” (KB) medium containing (mM) 100 K-glutamate, 10 K-aspartate, 25 KCl, 10 KH2PO4, 2 MgSO4, 20 taurine, 5 creatine, 0.5 EGTA, 20 D-glucose, 5 Hepes, and 1 mg/mL BSA (adjusted to pH 7.2 with KOH). Single SAN cells were then dissociated from the SAN tissue by manual agitation using a flame-forged Pasteur’s pipette. To recover the automaticity of the SAN cells, Ca^2+ was gradually reintroduced in the cell’s storage solution to a final concentration of 1.8 mM. SAN cells were then left to rest for 1 h before recordings.
For patch-clamp recordings of SAN myocytes, cells were harvested in custom-made chambers with glass bottoms for cell attachment. Cells were then super-fused with Tyrode’s solution warmed at 36 °C before recording. Action potentials and ionic currents were recorded using an Axon multi-clamp patch-clamp 700B amplifier. Voltage-gated L-type Ca^2+ currents (ICaL) were recorded using standard whole cell patch-clamp configuration. For recording ICaL, we used an extracellular recording solution contained (mM): 135 tetraethylammonium chloride (TEA-Cl), 10 4-aminopyridine (4-AP), 1 MgCl2, 0.03 tetrodotoxin (TTX), 1 g/L Glucose, 2 CaCl2, 10 Hepes, (adjusted to pH = 7.2 with TEAOH). […] Pacemaker activity was recorded by the perforated patch-clamp technique using escin (40 µg/ml). For recording cell automaticity glass pipettes were filled with the intracellular solution contained (mM): 80 K-Aspartate, 50 KCl, 1 MgCl2, 5 HEPES, 2 CaCl2, 5 EGTA, 3 ATP-Na+ salt; pH was adjusted to 7.2 with KOH. Escin was dissolved in sterile H2O and added to the intracellular solution right before each experiment.
We used an extracellular recording solution (Tyrode’s based) contained (mM): 140 NaCl, 5.4 KCl, 1 MgCl2, 1.8 CaCl2, 5 HEPES, 5.5 D-Glucose; pH was set to 7.4 with NaOH. AP parameters have been calculated as reported in Baudot et al.[10]. Data were analyzed using pCLAMP9 (Molecular Devices) and GraphPad Prism (GraphPad) software.
as §1

[3] = Cas 300 nM alone (n=9/N=4) or + Nife 3 µM (n=8/N=4)
[4] = Cas 1 µM alone (n=12/N=3) or + Nife 3 µM (n=9/N=3)

RICYIHKASLPRATKTCVENTCYKMFIRTQREYISERGCGCPTAMWPYQTECCKGDRCNK (disulfide 3-22, 17-39, 41-52, 53-58 (inferred)) [Cas, calciseptine]
effect on ICav1.3-42a (I-V relationship) (Cav1.3_42a; Cas 300 nM, all voltages tested, at peak p = 0.8148, n=9/N=4): no significant effect
L-type Ca2+ current density (Cav1.3_42a; Cas 300 nM, 0 mV, Ctrl -20.06± 5.37): -19.52± 4.21 pA/pF
L-type Ca2+ current density (Cav1.3_42a; Cas 300 nM, +10 mV, Ctrl -13.99± 3.71): -13.16± 2.99 pA/pF
L-type Ca2+ current density (Cav1.3_42a; Cas 300 nM, +20 mV, Ctrl -7.80± 2.21): -6.44± 1.89 pA/pF
L-type Ca2+ current density (Cav1.3_42a; Cas 300 nM, +30 mV, Ctrl -2.75± 1.09): -1.13± 1.30 pA/pF
L-type Ca2+ current density (Cav1.3_42a; Cas 300 nM, -10 mV, Ctrl -24.04± 6.83): -23.42± 5.08 pA/pF
L-type Ca2+ current density (Cav1.3_42a; Cas 300 nM, -20 mV, Ctrl -21.97± 6.85): -21.55± 4.86 pA/pF
reduction of ICav1.3-42a (Cav1.3_42a; all concentrations tested (up to 1 µM), holding −60 mV, step 0 mV, 300 nM n=13/N=4, 1 µM n=8/N=4): did not record a statistically significant reduction
block of 25-pS and 12-pS channel conductances [1]: Both conductances were blocked
effect on AP duration ([2]; Cas 300 nM): did not affect AP duration
action potential duration APD30 [2, 3]: 28 ± 2 ms
action potential duration APD50 [2, 3]: 46 ± 4 ms
action potential duration APD70 [2, 3]: 66 ± 6 ms
action potential duration APD90 [2, 3]: 98 ± 8 ms
slope of linear part of diastolic depolarization (SLDD) ([2]; Cas 300 nM alone (n=9/N=4) or + Nife 3 µM (n=8/N=4), Ctrl 0.06 ± 0.01): ^$0.05 ± 0.01^p=0.0128 mV/ms
slope of exponential part of diastolic depolarization (SEDD) ([2]; Cas 300 nM alone (n=9/N=4) or + Nife 3 µM (n=8/N=4), Ctrl 0.51 ± 0.09): ^$0.40 ± 0.04^p=0.0078 mV/ms
action potential amplitude (APA) ([2]; Cas 300 nM alone (n=9/N=4) or + Nife 3 µM (n=8/N=4), Ctrl 83 ± 2): 75 ± 3 mV
action potential rate ([2]; Cas 300 nM alone (n=9/N=4) or + Nife 3 µM (n=8/N=4), Ctrl 200 ± 21): ^$194 ± 19^p=0.0004 bpm
effect on AP amplitude ([2]; Cas 300 nM and 1 µM): reduced AP amplitude
effect on AP firing rate ([2]; Cas 300 nM and 1 µM): did not affect AP firing rate
effect on maximum diastolic potential, threshold potential and upstroke velocity ([2]; Cas 300 nM or 1 µM): did not observe statistically significant differences
effect on slopes of linear and exponential diastolic depolarization ([2]; Cas 300 nM or 1 µM): did not change
effect on AP duration at 30% and 50% of repolarization ([2]; Cas 1 µM): had statistically significant effect
action potential duration APD30 [2, 4]: 25 ± 2 ms
action potential duration APD50 [2, 4]: 43 ± 3 ms
action potential duration APD70 [2, 4]: 61 ± 3 ms
action potential duration APD90 [2, 4]: 87 ± 4 ms
slope of linear part of diastolic depolarization (SLDD) ([2]; Cas 1 µM alone (n=12/N=3) or + Nife 3 µM (n=10/N=3), Ctrl 0.07 ± 0.01): ^$0.06 ± 0.01^p=0.0187 mV/ms
slope of exponential part of diastolic depolarization (SEDD) ([2]; Cas 1 µM alone (n=12/N=3) or + Nife 3 µM (n=10/N=3), Ctrl 0.48 ± 0.06): ^$0.50 ± 0.06^p=0.0002 mV/ms
action potential amplitude (APA) ([2]; Cas 1 µM alone (n=12/N=3) or + Nife 3 µM (n=10/N=3), Ctrl 91 ± 2): 85 ± 3 mV
action potential rate ([2]; Cas 1 µM alone (n=12/N=3) or + Nife 3 µM (n=10/N=3), Ctrl 218 ± 15): ^$213 ± 15^p<0.0001 bpm
